Data taken from publication PMC11231114 (EJNMMI Research, 2024).

What was measured:
[1] = Dynamic microPET/CT imaging
Method: The scans were performed on a trimodal small animal scanner Albira Si PET/SPECT/CT Preclinical Imaging System (Bruker, Billerica, MA, USA) in a group of Wistar rats anesthetized with isoflurane (induction 4%, maintenance 1.5-2%).

[2] = Ex vivo biodistribution after i.v. injection; format: in vivo, Wistar rats
Method: Approximately 0.2 mL/31.1 MBq of compound was administered i.v. At established time points after injection (15 min, 30 min, 1 h, 2 h, 4 h and 6 h), the animals were euthanized by cervical dislocation and dissected. Selected organs and tissues were weighed, and their radioactivity was measured using a NaI(Tl) crystal gamma counter. The results were adjusted for the radioactive decay of ^18F. The physiological distribution was calculated and expressed in terms of the percentage of administrated dose found in each of the selected organs (%ID) or per gram of tissues/organ (%ID/g) with suitable standards of the injected dose.
The results of radiopharmaceutical uptake are presented as a percentage of the dose administered per gram of tissue (%ID/g) in the form of an average with standard deviation (%ID/g; mean ± standard deviation (SD)). Where applicable, statistical analysis was performed with one-way analysis of variance (ANOVA) using GraphPad Prism software (GraphPad Software, La Jolla, CA, USA).

[3] = 15 min after dosing, listed as [18F]SYN2
[4] = 6 h after dosing, listed as [18F]SYN2

## CN(C)c1ccc2cc3ccc(N(C)C)cc3[n+](CC[18F])c2c1 [[^18F]SYN2]
[1]; after 6 min
  SUV in the myocardium, plateau: 3.5
[1]; at 45 min
  SUV in the liver: 1.9
[1]; dynamic microPET
  SUV in the myocardium at the beginning: 4.0
  SUVmax in the liver: 2.9
  average standardized uptake value, myocardial uptake: 3.8
[2]; 15 min after dosing
  Mean %ID, Brain: 0.23 (0.09) %ID
  Mean %ID, Heart: 2.15 (0.18) %ID
  Mean %ID, Intestine: 17.1 ± 1.8 %ID
  Mean %ID, Kidneys: 13.4 ± 4.0 %ID
  Mean %ID, Liver: 7.57 (0.96) %ID
  Mean %ID, Lungs: 3.88 (0.36) %ID
  Mean %ID, Pancreas: 1.33 (0.23) %ID
  Mean %ID, Rest of the body: 51.01 (2.66) %ID
  Mean %ID, Spleen: 1.01 (0.20) %ID
  Mean %ID, Stomach: 1.99 (0.68) %ID
  Mean %ID, Urine: 0.46 (0.31) %ID
  Mean %ID/g, Blood: 0.33 (0.04) %ID/g
  Mean %ID/g, Brain: 0.13 (0.15) %ID/g
  Mean %ID/g, Heart: 3.02 %ID/g
  Mean %ID/g, Intestine: 0.98 (0.10) %ID/g
  Mean %ID/g, Kidneys: 7.07 (1.77) %ID/g
  Mean %ID/g, Liver: 0.89 (0.14) %ID/g
  Mean %ID/g, Lungs: 3.04 (0.55) %ID/g
  Mean %ID/g, Muscle: 0.82 (0.13) %ID/g
  Mean %ID/g, Pancreas: 2.22 (0.24) %ID/g
  Mean %ID/g, Spleen: 1.96 (0.51) %ID/g
  Mean %ID/g, Stomach: 1.65 (0.94) %ID/g
[2]; [3]
  Mean %ID, Intestine: 17.12 (1.81) %ID
  Mean %ID, Kidneys: 13.35 (3.97) %ID
[2]; 30 min after dosing
  Mean %ID, Brain: 0.19 (0.01) %ID
  Mean %ID, Heart: 2.19 (0.26) %ID
  Mean %ID, Intestine: 18.27 (1.40) %ID
  Mean %ID, Kidneys: 14.01 (3.78) %ID
  Mean %ID, Liver: 6.87 (1.10) %ID
  Mean %ID, Lungs: 2.64 (0.47) %ID
  Mean %ID, Pancreas: 0.97 (0.32) %ID
  Mean %ID, Rest of the body: 51.34 (1.73) %ID
  Mean %ID, Spleen: 0.79 (0.16) %ID
  Mean %ID, Stomach: 1.54 (0.12) %ID
  Mean %ID, Urine: 0.53 (0.25) %ID
  Mean %ID/g, Blood: 0.14 (0.02) %ID/g
  Mean %ID/g, Brain: 0.11 (0.00) %ID/g
  Mean %ID/g, Heart: 2.96 (0.49) %ID/g
  Mean %ID/g, Intestine: 1.29 (0.40) %ID/g
  Mean %ID/g, Kidneys: 7.22 (2.09) %ID/g
  Mean %ID/g, Liver: 0.74 (0.11) %ID/g
  Mean %ID/g, Lungs: 1.85 (0.24) %ID/g
  Mean %ID/g, Muscle: 0.46 (0.11) %ID/g
  Mean %ID/g, Pancreas: 1.75 (0.56) %ID/g
  Mean %ID/g, Spleen: 1.59 (0.41) %ID/g
  Mean %ID/g, Stomach: 1.11 (0.08) %ID/g
[2]; 1 h, based on %ID/g
  heart/liver ratio: 7.0 ± 1.8
  heart/lungs ratio: 2.1 ± 0.2
[2]; 1 h after dosing
  Mean %ID, Brain: 0.22 (0.12) %ID
  Mean %ID, Heart: 2.23 (0.11) %ID
  Mean %ID, Intestine: 20.18 (3.19) %ID
  Mean %ID, Kidneys: 12.91 (2.36) %ID
  Mean %ID, Liver: 3.66 (0.83) %ID
  Mean %ID, Lungs: 1.89 (0.23) %ID
  Mean %ID, Pancreas: 0.93 (0.01) %ID
  Mean %ID, Rest of the body: 46.30 (1.89) %ID
  Mean %ID, Spleen: 0.60 (0.10) %ID
  Mean %ID, Stomach: 1.84 (0.47) %ID
  Mean %ID, Urine: 1.59 (0.30) %ID
  Mean %ID/g, Blood: 0.08 (0.02) %ID/g
  Mean %ID/g, Brain: 0.12 (0.06) %ID/g
  Mean %ID/g, Heart: 3.0 ± 0.2 %ID/g
  Mean %ID/g, Intestine: 1.04 (0.18) %ID/g
  Mean %ID/g, Kidneys: 6.76 (1.23) %ID/g
  Mean %ID/g, Liver: 0.45 (0.11) %ID/g
  Mean %ID/g, Lungs: 1.42 (0.15) %ID/g
  Mean %ID/g, Muscle: 0.58 (0.18) %ID/g
  Mean %ID/g, Pancreas: 1.63 (0.16) %ID/g
  Mean %ID/g, Spleen: 1.15 (0.23) %ID/g
  Mean %ID/g, Stomach: 1.33 (0.33) %ID/g
[2]; 1 h after dosing, listed as [18F]SYN2
  Mean %ID/g, Heart: 2.99 (0.20) %ID/g
[2]; 1 h post-injection
  heart/blood ratio: 37
[2]; 2 h after dosing
  Mean %ID, Brain: 0.12 (0.01) %ID
  Mean %ID, Heart: 2.03 (0.23) %ID
  Mean %ID, Intestine: 25.93 (2.92) %ID
  Mean %ID, Kidneys: 9.65 (1.42) %ID
  Mean %ID, Liver: 2.46 (0.28) %ID
  Mean %ID, Lungs: 1.25 (0.31) %ID
  Mean %ID, Pancreas: 0.94 (0.22) %ID
  Mean %ID, Rest of the body: 44.09 (5.00) %ID
  Mean %ID, Spleen: 0.44 (0.04) %ID
  Mean %ID, Stomach: 1.66 (0.16) %ID
  Mean %ID, Urine: 3.94 (3.35) %ID
  Mean %ID/g, Blood: 0.04 (0.00) %ID/g
  Mean %ID/g, Brain: 0.07 (0.00) %ID/g
  Mean %ID/g, Heart: 2.58 (0.24) %ID/g
  Mean %ID/g, Intestine: 1.50 (0.24) %ID/g
  Mean %ID/g, Kidneys: 5.10 (0.85) %ID/g
  Mean %ID/g, Liver: 0.30 (0.04) %ID/g
  Mean %ID/g, Lungs: 0.90 (0.22) %ID/g
  Mean %ID/g, Muscle: 0.41 (0.09) %ID/g
  Mean %ID/g, Pancreas: 1.55 (0.36) %ID/g
  Mean %ID/g, Spleen: 0.84 (0.11) %ID/g
  Mean %ID/g, Stomach: 1.23 (0.22) %ID/g
[2]; 4 h after dosing
  Mean %ID, Brain: 0.25 (0.04) %ID
  Mean %ID, Heart: 2.15 (0.08) %ID
  Mean %ID, Intestine: 30.51 (0.47) %ID
  Mean %ID, Kidneys: 5.20 (0.36) %ID
  Mean %ID, Liver: 1.71 (0.27) %ID
  Mean %ID, Lungs: 0.89 (0.02) %ID
  Mean %ID, Pancreas: 0.84 (0.35) %ID
  Mean %ID, Rest of the body: 44.50 (2.38) %ID
  Mean %ID, Spleen: 0.32 (0.03) %ID
  Mean %ID, Stomach: 1.94 (0.38) %ID
  Mean %ID, Urine: 12.42 (1.40) %ID
  Mean %ID/g, Blood: 0.06 (0.02) %ID/g
  Mean %ID/g, Brain: 0.13 (0.02) %ID/g
  Mean %ID/g, Heart: 2.68 (0.44) %ID/g
  Mean %ID/g, Intestine: 1.88 (0.10) %ID/g
  Mean %ID/g, Kidneys: 2.86 (0.08) %ID/g
  Mean %ID/g, Liver: 0.21 (0.05) %ID/g
  Mean %ID/g, Lungs: 0.70 (0.02) %ID/g
  Mean %ID/g, Muscle: 0.51 (0.04) %ID/g
  Mean %ID/g, Pancreas: 1.56 (0.06) %ID/g
  Mean %ID/g, Spleen: 0.66 (0.06) %ID/g
  Mean %ID/g, Stomach: 1.58 (0.25) %ID/g
[2]; 6 h after dosing
  Mean %ID, Brain: 0.21 (0.02) %ID
  Mean %ID, Heart: 2.27 (0.21) %ID
  Mean %ID, Intestine: 33.4 ± 1.4 %ID
  Mean %ID, Kidneys: 3.4 ± 0.4 %ID
  Mean %ID, Liver: 1.07 (0.11) %ID
  Mean %ID, Lungs: 0.78 (0.14) %ID
  Mean %ID, Pancreas: 0.80 (0.05) %ID
  Mean %ID, Rest of the body: 44.67 (1.68) %ID
  Mean %ID, Spleen: 0.29 (0.02) %ID
  Mean %ID, Stomach: 1.53 (0.15) %ID
  Mean %ID, Urine: 15.27 (0.87) %ID
  Mean %ID/g, Blood: 0.04 (0.01) %ID/g
  Mean %ID/g, Brain: 0.13 (0.01) %ID/g
  Mean %ID/g, Heart: 2.79 %ID/g
  Mean %ID/g, Intestine: 2.00 (0.49) %ID/g
  Mean %ID/g, Kidneys: 1.69 (0.22) %ID/g
  Mean %ID/g, Liver: 0.12 (0.02) %ID/g
  Mean %ID/g, Lungs: 0.55 (0.08) %ID/g
  Mean %ID/g, Muscle: 0.53 (0.05) %ID/g
  Mean %ID/g, Pancreas: 1.27 (0.10) %ID/g
  Mean %ID/g, Spleen: 0.56 (0.02) %ID/g
  Mean %ID/g, Stomach: 1.12 (0.12) %ID/g
[2]; [4]
  Mean %ID, Intestine: 33.42 (1.37) %ID
  Mean %ID, Kidneys: 3.44 (0.37) %ID
[2]; ex vivo biodistribution
  retention in all other organs examined (other than intestine, kidneys): < 2 %ID/g
[2]; from 2 to 6 h
  myocardial uptake: 2.6–2.8 %ID/g
[2]; up to 6 h
  uptake in the myocardium: higher than 2.5 %ID/g
[2]; within 1-hour post-injection
  myocardial uptake: about 3.0 %ID/g
